Measured values: the NIST ThermoML archive (doi:10.1016/j.tca.2013.03.013)
Numbers after ± are expanded uncertainties.

Conditions: Crystal

In the case of CC1(C)O[C@@H]2C[C@H]3[C@@H]4C[C@H](F)C5=CC(=O)C=C[C@]5(C)[C@@]4(F)[C@@H](O)C[C@]3(C)[C@]2(C(=O)CO)O1 [fluocinolone acetonide], the Normal melting temperature (DTA) is reported as 261.4 ± 0.7 °C and the Normal melting temperature (visual observation) is reported as 262.00 ± 0.5 °C.
